Data on one molecule can be found in patent US20220304957A1, “ANTI-CANCER COMPOSITIONS AND METHODS OF USE” (Board of Supervisors of Louisiana State University and …, priority 2019, published 2022).

The nature of data set [1]: Toxicity in mice: body weight and histopathology. It is filed as in vivo, C57BL/6 mice. As to conditions: 14 days. As to the method: Panel A: PP1 accumulation in different tissues following oral administration of PP1 (25 mg/kg). C57BL/6 mice were treated daily for 14 days, and the levels of PP1 in the blood, liver, spleen, kidney, heart, brain and in brain tumors, were evaluated by HPLC, as previously described. Data represent average values with standard deviation (n=3). Panel B: Body weight of C57BL/6 mice treated with PP1. Mice were treated with the PP1 at doses ranging from 25 to 75 mg/kg/day administered by oral gavage. Following 7 and 14 days of daily drug administration both control (DMSO-treated) and experimental (PP1-treated) mice were weighted. Data represent average values with standard deviation (at least three mice per group were included). In Panels A and B, tumor free and tumor bearing mice were included for the body weight measurement. Panels C, D and E: Intracranial growth of GL-261-Luc cells. C57 black mice, 6-8 weeks of age were anesthetized with 4% isoflurane and secured in a stereotaxic head frame (Harvard Apparatus, Holliston Mass.). GL-261-luc cells (1×10^5 cells in 2 μl; PerkinElmer Inc.) were injected into the brain parenchyma (coordinates: 3 mm anterior to Bregma; 1.5 mm lateral to Sagital suture; 3 mm down from surface) through a burr hole in the skull using a 10 μl Hamilton syringe. Panel C: Mice with large intracranial tumors were selected using bioluminescence imaging with Xenogen IVIS 200 system. Tumor size is expressed as radiance (photons/s/cm2/sr) and was quantified with the Living Image 4.1 software according to the manufacturer's recommendations (Xenogen). Panels D and E: Pathological evaluation of intracranial tumors and tissues. Following 14 days of drug administration (control: DMSO administered daily by oral gavage; PP1 50 mg/kg administered daily by oral gavage) the animals were euthanized, and the following organs were collected: liver, kidneys, spleen, heart, intact brain and intracranial tumors. The tissues were formalin-fixed, paraffin-embedded, and the resulting thin section were stained with hematoxylin and eosin (H&E) for a routine pathological evaluation.
Animal studies—All described procedures involving experimental animals were performed in accordance to the IACUC protocol #3444 at LSUHSC, New Orleans. C57BL/6NHsd mice, 11-12 weeks of age (Envigo), were anesthetized with 4% isoflurane and secured in a stereotaxic head frame (Harvard Apparatus, Holliston Mass.). […] The resulting images were evaluated and luminescence measurements from equivalent regions of interest encompassing the entire skull were collected using Living Image 4.1 software (Xenogen). […]

Data set [2] concerns intracranial GL-261 glioblastoma tumors. In words: Intracranial GL-261-luc glioblastoma model, pathological evaluation of tumors. It counts as in vivo, C57BL/6 mice. The following applies: 50 mg/kg/day oral, 14 days, large pre-existing tumors, n=3. As to the method: Panel A: PP1 accumulation in different tissues following oral administration of PP1 (25 mg/kg). C57BL/6 mice were treated daily for 14 days, and the levels of PP1 in the blood, liver, spleen, kidney, heart, brain and in brain tumors, were evaluated by HPLC, as previously described. Data represent average values with standard deviation (n=3). Panel B: Body weight of C57BL/6 mice treated with PP1. Mice were treated with the PP1 at doses ranging from 25 to 75 mg/kg/day administered by oral gavage. Following 7 and 14 days of daily drug administration both control (DMSO-treated) and experimental (PP1-treated) mice were weighted. Data represent average values with standard deviation (at least three mice per group were included). In Panels A and B, tumor free and tumor bearing mice were included for the body weight measurement. Panels C, D and E: Intracranial growth of GL-261-Luc cells. […] Tumor size is expressed as radiance (photons/s/cm2/sr) and was quantified with the Living Image 4.1 software according to the manufacturer's recommendations (Xenogen). […]
Animal studies—All described procedures involving experimental animals were performed in accordance to the IACUC protocol #3444 at LSUHSC, New Orleans. […] The resulting images were evaluated and luminescence measurements from equivalent regions of interest encompassing the entire skull were collected using Living Image 4.1 software (Xenogen). […]

In data set [3] the test system is LN-229 human glioblastoma cells. As to conditions: in vitro; cited from earlier work.
A short description of data set [4]: Stability in human blood (HPLC). The following applies: 50 μM added, 37 °C, 48-hour time point. It is filed as in vitro ADME. As to the method: Aliquots of 50 μM PP1 and FF in DMSO were added to 500 μl to heparinized human blood to a final concentration of 50 μM. Following incubation at 37° C. for the indicated time points, the samples were frozen at −80° C., and later prepared for HPLC-based detection of the compounds. Please note that FF is converted to FA in the presence of human blood. […] Data represent average values with standard deviation (n=3). panel B: Water solubility. FF and PP1, were added to water to a final concentration of 50 mM and sonicated in an ultrasonic bath (Branson 1510 Digital Heated Ultrasonic bath) for one hour at room temperature. The samples were then centrifuged for 10 minutes at 16000×g, and the supernatant filtered through 0.45 μm syringe filter. […] The PPAR transcriptional activity was determined in HepG2 cells by the JsTkpGL3 reporter plasmid, which contains a firefly luciferase gene driven by the PPRE, which consists of three copies of the J site from the apo-AII gene promoter. […] The luciferase activity was detected with Dual-Luciferase reporter assay system (Promega, Madison, Wis.), and the resulting luminescence measured with Synergy 2 microplate reader (BioTek, Winooski, Vt.). […]
In this experiment, 50 μM of PP1 and 50 μM of FF were incubated with human blood at […], at indicated time points. […] In contrast, nearly 25 μM of PP1 was still detected at the 48-hour time point (FIG. 4A; left panel).

Molecules are shown by their SMILES.

Consider `CN(CCO)C(=O)C(C)(C)Oc1ccc(C(=O)c2ccc(Cl)cc2)cc1` [PP1, 2-[4-(4-chlorobenzoyl)phenoxy]-N-(2-hydroxyethyl)-N,2-dimethylpropanamide], for which the “overall toxicity and body weight” value in data set [1] (25-75 mg/kg/day oral gavage, tumor-free and tumor bearing mice) was “did not show any signs of overall toxicity and maintained their body weight”. For the same molecule, in data set [1] (oral gavage daily), the “histology, heart, kidney and intact brain” value is “did not show any signs of pathology”; the “histology, liver” value was “inflammation and focal necrotic areas in the liver”; the “histology, spleen” value is given as “enlarged spleen with accumulation of hemosiderin”. Also, the “necrosis within the tumor mass” value in data set [2] was “multiple large areas of necrotic tissue within the tumor mass”. For the same molecule, the “concentration at which highly effective tumor cell death occurs” value in data set [3] was 10 µM. Besides, in data set [4], the “compound still detected in human blood” value was about 25 µM.
